Legend:
hERG (KCNH2) = hERG (KCNH2) (Homo sapiens, UniProt Q12809); assay: in vitro
Histamine H3 receptor = Histamine H3 receptor (Homo sapiens, UniProt Q9Y5N1); assay: Binding affinity at histamine H3 receptor by hH3-[35S]GTPgamma[S] binding assay; type: functional
Cytochrome P450 3A4 = Cytochrome P450 3A4 (Homo sapiens, UniProt P08684)
Cytochrome P450 2D6 = Cytochrome P450 2D6 (Homo sapiens, UniProt P10635)
Cytochrome P450 1A2 = biological target: T1, Cytochrome P450 1A2 (Homo sapiens, UniProt P05177)
T1 sequence (P05177 whole entry): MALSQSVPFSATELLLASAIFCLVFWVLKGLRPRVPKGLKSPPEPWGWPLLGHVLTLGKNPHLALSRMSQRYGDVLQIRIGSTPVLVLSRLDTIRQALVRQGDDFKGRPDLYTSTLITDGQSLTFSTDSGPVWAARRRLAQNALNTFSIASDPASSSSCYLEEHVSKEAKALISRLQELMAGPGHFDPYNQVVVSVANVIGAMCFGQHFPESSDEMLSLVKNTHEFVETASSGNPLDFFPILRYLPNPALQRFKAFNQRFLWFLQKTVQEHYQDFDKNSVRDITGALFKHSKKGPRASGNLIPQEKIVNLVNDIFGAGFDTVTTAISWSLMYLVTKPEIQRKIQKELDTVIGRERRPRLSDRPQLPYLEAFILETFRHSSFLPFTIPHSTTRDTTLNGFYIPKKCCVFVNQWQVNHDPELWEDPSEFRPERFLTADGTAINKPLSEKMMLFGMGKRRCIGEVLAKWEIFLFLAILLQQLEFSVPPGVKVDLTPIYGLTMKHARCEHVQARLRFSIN

[1] = HEK293 cells that express hERG, probe [3H]astemizole

Histamine H3 receptor, sequence (Q9Y5N1 whole entry): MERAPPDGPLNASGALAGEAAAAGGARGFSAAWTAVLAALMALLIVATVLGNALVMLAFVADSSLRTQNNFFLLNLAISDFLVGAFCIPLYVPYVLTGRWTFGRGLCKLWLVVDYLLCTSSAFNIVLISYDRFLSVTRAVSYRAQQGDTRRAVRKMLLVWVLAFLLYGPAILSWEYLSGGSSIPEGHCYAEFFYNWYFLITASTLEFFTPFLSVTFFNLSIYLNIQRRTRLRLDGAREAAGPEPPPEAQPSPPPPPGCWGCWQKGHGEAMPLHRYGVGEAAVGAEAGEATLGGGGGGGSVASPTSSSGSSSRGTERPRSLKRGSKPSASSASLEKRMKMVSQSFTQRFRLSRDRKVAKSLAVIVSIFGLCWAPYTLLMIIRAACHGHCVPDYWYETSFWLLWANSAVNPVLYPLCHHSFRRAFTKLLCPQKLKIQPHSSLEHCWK
hERG (KCNH2), sequence (Q12809 whole entry): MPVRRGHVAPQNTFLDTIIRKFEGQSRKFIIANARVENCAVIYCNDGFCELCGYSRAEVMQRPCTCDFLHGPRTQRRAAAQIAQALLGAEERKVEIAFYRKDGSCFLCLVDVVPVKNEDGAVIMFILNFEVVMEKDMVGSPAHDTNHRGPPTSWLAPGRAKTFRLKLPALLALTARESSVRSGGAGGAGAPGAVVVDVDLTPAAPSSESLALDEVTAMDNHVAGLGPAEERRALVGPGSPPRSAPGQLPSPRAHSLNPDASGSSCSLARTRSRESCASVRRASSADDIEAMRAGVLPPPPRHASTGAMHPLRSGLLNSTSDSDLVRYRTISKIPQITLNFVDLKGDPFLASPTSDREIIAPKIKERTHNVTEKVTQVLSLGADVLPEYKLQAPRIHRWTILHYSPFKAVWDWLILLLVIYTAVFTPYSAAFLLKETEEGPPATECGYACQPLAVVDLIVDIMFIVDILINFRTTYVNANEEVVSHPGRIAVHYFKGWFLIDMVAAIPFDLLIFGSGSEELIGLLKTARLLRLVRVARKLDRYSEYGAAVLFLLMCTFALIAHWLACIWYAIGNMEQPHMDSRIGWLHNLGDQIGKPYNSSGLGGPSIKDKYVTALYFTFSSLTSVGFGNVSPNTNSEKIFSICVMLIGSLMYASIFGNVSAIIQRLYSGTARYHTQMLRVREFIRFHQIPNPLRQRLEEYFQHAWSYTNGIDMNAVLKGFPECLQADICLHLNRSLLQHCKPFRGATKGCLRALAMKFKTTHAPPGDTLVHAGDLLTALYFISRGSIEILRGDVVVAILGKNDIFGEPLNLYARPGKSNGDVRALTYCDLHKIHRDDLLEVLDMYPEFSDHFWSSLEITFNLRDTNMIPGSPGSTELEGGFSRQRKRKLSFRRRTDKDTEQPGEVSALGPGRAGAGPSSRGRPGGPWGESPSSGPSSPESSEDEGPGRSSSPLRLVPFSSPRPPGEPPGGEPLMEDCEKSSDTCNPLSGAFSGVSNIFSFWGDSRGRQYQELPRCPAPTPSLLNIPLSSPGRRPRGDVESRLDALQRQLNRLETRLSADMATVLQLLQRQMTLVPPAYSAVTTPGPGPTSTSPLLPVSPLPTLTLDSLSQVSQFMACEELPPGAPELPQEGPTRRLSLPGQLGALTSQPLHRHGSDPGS
Cytochrome P450 3A4, sequence (P08684 whole entry): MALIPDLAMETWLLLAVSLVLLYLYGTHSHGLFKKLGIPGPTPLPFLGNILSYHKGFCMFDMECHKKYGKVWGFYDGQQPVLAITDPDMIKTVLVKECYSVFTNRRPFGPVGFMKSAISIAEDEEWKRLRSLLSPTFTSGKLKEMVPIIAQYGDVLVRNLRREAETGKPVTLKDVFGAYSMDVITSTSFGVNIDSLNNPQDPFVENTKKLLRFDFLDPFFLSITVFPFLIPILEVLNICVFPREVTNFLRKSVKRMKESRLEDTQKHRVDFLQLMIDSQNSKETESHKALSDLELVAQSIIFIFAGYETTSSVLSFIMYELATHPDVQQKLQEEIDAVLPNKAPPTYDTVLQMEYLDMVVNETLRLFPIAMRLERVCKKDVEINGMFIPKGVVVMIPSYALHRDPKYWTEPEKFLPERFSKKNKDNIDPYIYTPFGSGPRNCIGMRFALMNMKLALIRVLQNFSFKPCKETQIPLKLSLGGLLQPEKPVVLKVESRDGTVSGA
Cytochrome P450 2D6, sequence (P10635 whole entry): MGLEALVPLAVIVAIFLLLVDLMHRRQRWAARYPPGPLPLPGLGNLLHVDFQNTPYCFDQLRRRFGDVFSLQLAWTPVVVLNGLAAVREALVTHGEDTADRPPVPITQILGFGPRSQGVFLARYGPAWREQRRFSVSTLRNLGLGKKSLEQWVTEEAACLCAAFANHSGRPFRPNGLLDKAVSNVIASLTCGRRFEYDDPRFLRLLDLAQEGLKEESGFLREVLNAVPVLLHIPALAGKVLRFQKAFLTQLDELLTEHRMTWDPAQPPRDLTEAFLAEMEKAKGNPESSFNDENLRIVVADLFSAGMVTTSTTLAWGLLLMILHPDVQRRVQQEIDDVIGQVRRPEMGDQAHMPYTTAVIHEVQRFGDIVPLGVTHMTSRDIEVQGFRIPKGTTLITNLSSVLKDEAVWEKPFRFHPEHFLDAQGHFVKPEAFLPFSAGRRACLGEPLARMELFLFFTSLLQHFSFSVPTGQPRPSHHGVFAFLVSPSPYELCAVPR

| Compound | Ki (Histamine H3 receptor) | also measured |
| --- | --- | --- |
| CC(C)N1CCN(C(=O)N2CC=C(c3ccccc3)CC2)CC1 |  | inhibition at 10 µM (hERG (KCNH2); hek293): 31% |
| NCc1ccc(CNC(=O)N2CCC[C@H]2CN2CCCC2)cc1 | 109 nM (antagonist) |  |
| O=C(NCCc1ccccc1)N1CCC[C@H]1CN1CCCC1 | 226 nM (antagonist) |  |
| CC(C)N1CCN(C(=O)NCc2ccc(Cl)c(Cl)c2)CC1 | 20 nM (antagonist) |  |
| O=C(/C=C/c1ccc(OC(F)(F)F)cc1)N1CCC[C@H]1CN1CCCC1 | 13.4 nM (antagonist) |  |
| O=C(N1CCN(C2CCCC2)CC1)N1Cc2ccccc2C1 |  | inhibition at 10 µM (hERG (KCNH2); [1]): 45% |
| O=C(NCc1ccccc1)N1CCN(C2CCCC2)CC1 | 94 nM (antagonist) |  |
| O=C(NCc1ccc(Oc2ccccc2)cc1)N1CCN(C2CCCC2)CC1 | 38 nM (antagonist) |  |
| COc1ccc(CNC(=O)N2CCC[C@H]2CN2CCCC2)cc1 | 295 nM (antagonist) |  |
| O=C(/C=C/c1ccc(-c2ccccc2)cc1)N1CCC[C@H]1CN1CCCC1 | 3.7 nM (antagonist) |  |
| CC(C)N1CCN(C(=O)N2CCC(C(=O)N3CC4CCC(CC4)C3)CC2)CC1 |  | IC50 (Cytochrome P450 3A4): > 25000 nM; inhibition at 10 µM (hERG (KCNH2); hek293): 8%; IC50 (Cytochrome P450 2D6): > 25000 nM; IC50 (Cytochrome P450 1A2): > 25000 nM |
| O=C(NCc1ccc(Cl)c(Cl)c1)N1CCN(C2CCCC2)CC1 | 15 nM (antagonist) |  |
| CC(C)N1CCN(C(=O)N(C)Cc2ccc(-c3ccccc3)cc2)CC1 | 37 nM (antagonist) | inhibition at 10 µM (hERG (KCNH2); [1]): 55% |
| CC(C)N1CCN(C(=O)NC2Cc3ccccc3C2)CC1 | 30 nM (antagonist) |  |
| COc1cccc(CNC(=O)N2CCC[C@H]2CN2CCCC2)c1 | 188 nM (antagonist) |  |
| COc1cc2c(cc1OC)CN(C(=O)N1CCN(C(C)C)CC1)CC2 |  | inhibition at 10 µM (hERG (KCNH2); [1]): 8% |
| O=C(/C=C/c1ccc(Cl)cc1)N1CCC[C@H]1CN1CCCC1 | 11.2 nM (antagonist) |  |
| CC(C)N1CCN(C(=O)N2CCC(C(=O)OC(C)(C)C)CC2)CC1 |  | IC50 (Cytochrome P450 3A4): > 25000 nM; inhibition at 10 µM (hERG (KCNH2); [1]): 9%; IC50 (Cytochrome P450 2D6): > 25000 nM; IC50 (Cytochrome P450 1A2): > 25000 nM |
| O=C(N1CCN(C2CC2)CC1)N1Cc2ccccc2C1 |  | inhibition at 10 µM (hERG (KCNH2); [1]): 16% |

| Compound | Ki (Histamine H3 receptor) | also measured |
| --- | --- | --- |
| O=C(NCc1ccccc1)N1CCC[C@H]1CN1CCCC1 | 196 nM (antagonist) |  |
| O=C(NCC1CCCCC1)N1CCC[C@H]1CN1CCCC1 | 458 nM (antagonist) |  |
| CC(C)N1CCN(C(=O)NCc2ccc(Oc3ccccc3)cc2)CC1 | 34 nM (antagonist) |  |
| O=C(NCc1ccc(OC(F)(F)F)cc1)N1CCC[C@H]1CN1CCCC1 | 121 nM (antagonist) |  |
| CN(Cc1ccc(-c2ccccc2)cc1)C(=O)N1CCC[C@H]1CN1CCCC1 |  | inhibition at 10 µM (hERG (KCNH2); [1]): 66% |
| CCN1CCN(C(=O)NC2Cc3ccccc3C2)CC1 | 44 nM (antagonist) |  |
| CC(C)N1CCN(C(=O)N2CCC(NC(=O)C3CCCC3)CC2)CC1 |  | IC50 (Cytochrome P450 3A4): > 25000 nM; inhibition at 10 µM (hERG (KCNH2); hek293): 6%; IC50 (Cytochrome P450 2D6): 17000 nM; IC50 (Cytochrome P450 1A2): > 25000 nM |
| O=C(NC1Cc2ccccc2C1)N1CCN(C2CCCC2)CC1 | 29 nM (antagonist) |  |
| NCc1cccc(CNC(=O)N2CCC[C@H]2CN2CCCC2)c1 | 78 nM (antagonist) |  |
| CC(C)N1CCN(C(=O)N2CCC(Cc3ccccc3)CC2)CC1 |  | inhibition at 10 µM (hERG (KCNH2); hek293): 21% |
| CCN1CCN(C(=O)N[C@@H]2C[C@H]2c2ccccc2)CC1 | 40 nM (antagonist) |  |
| O=C(NCc1ccc(-c2ccccc2)cc1)N1CCC[C@H]1CN1CCCC1 | 87 nM (antagonist) |  |
| O=C(NC1Cc2ccccc2C1)N1CCC[C@H]1CN1CCCC1 | 52 nM (antagonist) |  |
| O=C(NCc1ccc(Cl)cc1)N1CCC[C@H]1CN1CCCC1 | 165 nM (antagonist) |  |
| O=C(NCc1ccc(Cl)c(Cl)c1)N1CCC[C@H]1CN1CCCC1 | 47 nM (antagonist) |  |
| O=C(N1Cc2ccccc2C1)N1CCC[C@H]1CN1CCCC1 |  | inhibition at 10 µM (hERG (KCNH2); [1]): 26% |
| O=C(NCc1cccc(C(F)(F)F)c1)N1CCC[C@H]1CN1CCCC1 | 117 nM (antagonist) |  |
| O=C(NCc1ccc(Oc2ccccc2)cc1)N1CCC[C@H]1CN1CCCC1 | 34 nM (antagonist) |  |

Source: ChEMBL document CHEMBL1137244, “Ureas with histamine H3-antagonist receptor activity--a new scaffold discovered by lead-hopping from cinnamic acid amides” (Bioorg Med Chem Lett, 2006)
